In patent US20240358702A1, “CYCLIC UREA KRAS INHIBITORS” (INCYTE CORPORATION, priority 2023, published 2024):

Assays:
KRAS G12V = KRAS G12V (Homo sapiens, UniProt P01116, G12V); assay: GDP-GTP exchange assay (bodipy-GDP/GppNHp, SOS1), KRAS G12V; type: biochemical; conditions: KRAS_G12V exchange assay IC50, value for the most potent isomer quoted; for IC50: read-out: G12V_exchange
Experimental: (§1) The inhibitor potency of the exemplified compounds was determined in a fluorescence based guanine nucleotide exchange assay, which measures the exchange of bodipy-GDP (fluorescently labeled GDP) for GppNHp (Non-hydrolyzable GTP analog) to generate the active state of KRAS in the presence of SOS1 (guanine nucleotide exchange factor). Inhibitors were serially diluted in DMSO and a volume of 0.1 μL was transferred to the wells of a black low volume 384-well plate. 5 μL/well volume of bodipy-loaded KRAS G12D diluted to […] in assay buffer (25 mM Hepes pH 7.5, 50 mM NaCl, 10 mM mgCl2 and 0.01% Brij-35) was added to the plate and pre-incubated with inhibitor for 4 h at ambient temperature. Appropriate controls (enzyme with no inhibitor or with a G12D inhibitor) were included on the plate. The exchange was initiated by the addition of a 5 μL/well volume containing 1 mM GppNHp and 300 nM SOS1 in assay buffer. The 10 μL/well reaction concentration of the bodipy-loaded KRAS G12D, GppNHp, and SOS1 were 2.5 nM, 500 uM, and 150 nM, respectively. The reaction plates were incubated at ambient temperature for 2 h, a time estimated for complete GDP-GTP exchange in the absence of inhibitor. For the KRAS G12V mutant, similar guanine nucleotide exchange assays were used with 2.5 nM as final concentration for the bodipy loaded KRAS proteins and 3 h incubation after adding GppNHp-SOS1 mixture. A cyclic peptide described to selectively bind G12D mutant (Sakamoto et al., BBRC 484.3 (2017), 605-611) or internal compounds with confirmed binding were used as positive controls in the assay plates. Fluorescence intensities were measured on a PheraStar plate reader instrument (BMG Labtech) with excitation at 485 nm and emission at 520 nm.
(§2) Either GraphPad prism or Genedata Screener SmartFit was used to analyze the data. The IC50 values were derived by fitting the data to a four parameter logistic equation producing a sigmoidal dose-response curve with a variable Hill coefficient.
(§3) The symbol “t” indicates IC50≤100 nM, “††” indicates IC50>100 nM but ≤1 μM; and “†††” indicates IC50 is >1 μM but ≤5 μM, “††††” indicates IC50 is >5 μM but ≤10 μM. “NA” indicates IC50 not available.

KRAS G12D = KRAS G12D (Homo sapiens, UniProt P01116, G12D); assay: GDP-GTP exchange assay (bodipy-GDP/GppNHp, SOS1), KRAS G12D; type: biochemical; conditions: KRAS_G12D exchange assay IC50; 4 h pre-incubation; value for the most potent isomer quoted
Experimental: as §1, §2, §3

KRAS G12V, sequence (P01116 1-188 isoform P01116-2 G12V): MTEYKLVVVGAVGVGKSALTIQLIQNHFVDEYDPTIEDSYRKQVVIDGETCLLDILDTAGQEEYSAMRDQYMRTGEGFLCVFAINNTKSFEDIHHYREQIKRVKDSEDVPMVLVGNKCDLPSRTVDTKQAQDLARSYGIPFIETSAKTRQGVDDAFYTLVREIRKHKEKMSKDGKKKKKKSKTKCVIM
KRAS G12D, sequence (P01116 1-188 isoform P01116-2 G12D): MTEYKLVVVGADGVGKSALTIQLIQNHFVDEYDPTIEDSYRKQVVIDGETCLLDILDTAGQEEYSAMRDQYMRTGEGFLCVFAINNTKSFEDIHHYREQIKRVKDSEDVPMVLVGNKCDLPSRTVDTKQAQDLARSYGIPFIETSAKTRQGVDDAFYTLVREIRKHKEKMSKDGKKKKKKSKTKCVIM

For Cc1nc2c(F)c(-c3cccc(Cl)c3Cl)c(CCC#N)cc2c2c1cc([C@@H](C)N1CCCN(c3ccnc4sccc34)C1=O)n2[C@H]1[C@H]2CN[C@@H]1C2 (single isomer, unassigned) [Example 8], the G12V_exchange (KRAS G12V) was “†” and the G12D_exchange (KRAS G12D) was “†”.

For Cc1nc2c(F)c(-c3cccc(Cl)c3Cl)c(CCC#N)cc2c2c1cc([C@@H](C)N1CCCN(c3cncnc3)C1=O)n2[C@H]1[C@H]2CN[C@@H]1C2 (single isomer, unassigned) [Example 10], the G12V_exchange (KRAS G12V) was “†” and the G12D_exchange (KRAS G12D) was “†”.

With Cc1nc2c(F)c(-c3cccc(Cl)c3Cl)c(CCC#N)cc2c2c1cc([C@@H](C)N1CCCN(c3ccncn3)C1=O)n2[C@H]1[C@H]2CN[C@@H]1C2 (single isomer, unassigned) [Example 11] the IC50 (KRAS G12V) was 100 to 1000 nM and the G12D_exchange (KRAS G12D) was “†”.

Cc1nc2c(F)c(-c3cccc(Cl)c3Cl)c(CCC#N)cc2c2c1cc([C@@H](C)N1CCCN(c3ccnc(C(F)F)c3)C1=O)n2[C@H]1[C@H]2CN[C@@H]1C2 (single isomer, unassigned) [Example 12] was tested, and the IC50 (KRAS G12V) was 100 to 1000 nM and the G12D_exchange (KRAS G12D) was “†”.

In the case of Cc1nc2c(F)c(-c3cccc(Cl)c3Cl)c(CCC#N)cc2c2c1cc([C@@H](C)N1CCCN(c3ccnnc3)C1=O)n2[C@H]1[C@H]2CN[C@@H]1C2 [Example 9, 3-(1-((1R,4R,5S)-2-azabicyclo[2.1.1]hexan-5-yl)-7-(2,3-dichlorophenyl)-6-fluoro-4-methyl-2-((R)-1-(2-oxo-3-(pyridazin-4-yl)tetrahydropyrimidin-1(2H)-yl)ethyl)-1H-pyrrolo[3,2-c]quinolin-8-yl)propanenitrile], the IC50 (KRAS G12V) is reported as 100 to 1000 nM and the G12D_exchange (KRAS G12D) is reported as “†”.

With Cc1nc2c(F)c(-c3cccc(Cl)c3Cl)c(CCC#N)cc2c2c1cc([C@@H](C)N1CCCN(c3ccccc3)C1=O)n2[C@H]1[C@H]2CN[C@@H]1C2 [Example 16, 3-(1-((1R,4R,5S)-2-azabicyclo[2.1.1]hexan-5-yl)-7-(2,3-dichlorophenyl)-6-fluoro-4-methyl-2-((R)-1-(2-oxo-3-phenyltetrahydropyrimidin-1(2H)-yl)ethyl)-1H-pyrrolo[3,2-c]quinolin-8-yl)propanenitrile] the G12V_exchange (KRAS G12V) was “†” and the G12D_exchange (KRAS G12D) was “†”.

With Cc1nc2c(F)c(-c3cccc(Cl)c3Cl)c(CCC#N)cc2c2c1cc([C@@H](C)N1CCCN(c3ccncc3)C1=O)n2[C@H]1[C@H]2CN[C@@H]1C2 [Example 17, 3-(1-((1R,4R,5S)-2-azabicyclo[2.1.1]hexan-5-yl)-7-(2,3-dichlorophenyl)-6-fluoro-4-methyl-2-((R)-1-(2-oxo-3-(pyridin-4-yl)tetrahydropyrimidin-1(2H)-yl)ethyl)-1H-pyrrolo[3,2-c]quinolin-8-yl)propanenitrile] the IC50 (KRAS G12V) was 100 to 1000 nM and the G12D_exchange (KRAS G12D) was “†”.

Cc1nc2c(F)c(-c3cccc(Cl)c3Cl)c(CCC#N)cc2c2c1cc([C@@H](C)N1CCCN(c3ccc(F)cc3)C1=O)n2[C@H]1[C@H]2CN[C@@H]1C2 [Example 18, 3-(1-((1R,4R,5S)-2-azabicyclo[2.1.1]hexan-5-yl)-7-(2,3-dichlorophenyl)-6-fluoro-2-((R)-1-(3-(4-fluorophenyl)-2-oxotetrahydropyrimidin-1(2H)-yl)ethyl)-4-methyl-1H-pyrrolo[3,2-c]quinolin-8-yl)propanenitrile] was tested, and the G12V_exchange (KRAS G12V) was “†” and the G12D_exchange (KRAS G12D) was “†”.

With Cc1nc2c(F)c(-c3cccc(Cl)c3Cl)c(CCC#N)cc2c2c1cc([C@@H](C)N1CCCN(c3ccccn3)C1=O)n2[C@H]1[C@H]2CN[C@@H]1C2 [Example 19, 3-(1-((1R,4R,5S)-2-azabicyclo[2.1.1]hexan-5-yl)-7-(2,3-dichlorophenyl)-6-fluoro-4-methyl-2-((R)-1-(2-oxo-3-(pyridin-2-yl)tetrahydropyrimidin-1(2H)-yl)ethyl)-1H-pyrrolo[3,2-c]quinolin-8-yl)propanenitrile] the G12V_exchange (KRAS G12V) was “†” and the G12D_exchange (KRAS G12D) was “†”.

COc1ncccc1N1CCCN([C@H](C)c2cc3c(C)nc4c(F)c(-c5cccc(Cl)c5Cl)c(CCC#N)cc4c3n2[C@H]2[C@H]3CN[C@@H]2C3)C1=O [Example 20, 3-(1-((1R,4R,5S)-2-azabicyclo[2.1.1]hexan-5-yl)-7-(2,3-dichlorophenyl)-6-fluoro-2-((R)-1-(3-(2-methoxypyridin-3-yl)-2-oxotetrahydropyrimidin-1(2H)-yl)ethyl)-4-methyl-1H-pyrrolo[3,2-c]quinolin-8-yl)propanenitrile] was tested, and the IC50 (KRAS G12V) was 100 to 1000 nM and the G12D_exchange (KRAS G12D) was “†”.

In the case of Cc1nc2c(F)c(-c3cccc(Cl)c3Cl)c(CCC#N)cc2c2c1cc([C@@H](C)N1CCCN(c3ccncc3F)C1=O)n2[C@H]1[C@H]2CN[C@@H]1C2 [Example 21, 3-(1-((1R,4R,5S)-2-azabicyclo[2.1.1]hexan-5-yl)-7-(2,3-dichlorophenyl)-6-fluoro-2-((R)-1-(3-(3-fluoropyridin-4-yl)-2-oxotetrahydropyrimidin-1(2H)-yl)ethyl)-4-methyl-1H-pyrrolo[3,2-c]quinolin-8-yl)propanenitrile], the G12V_exchange (KRAS G12V) is reported as “†” and the G12D_exchange (KRAS G12D) is reported as “†”.

With COc1cc(N2CCCN([C@H](C)c3cc4c(C)nc5c(F)c(-c6cccc(Cl)c6Cl)c(CCC#N)cc5c4n3[C@H]3[C@H]4CN[C@@H]3C4)C2=O)ccn1 [Example 22, 3-(1-((1R,4R,5S)-2-azabicyclo[2.1.1]hexan-5-yl)-7-(2,3-dichlorophenyl)-6-fluoro-2-((R)-1-(3-(2-methoxypyridin-4-yl)-2-oxotetrahydropyrimidin-1(2H)-yl)ethyl)-4-methyl-1H-pyrrolo[3,2-c]quinolin-8-yl)propanenitrile] the G12V_exchange (KRAS G12V) was “†” and the G12D_exchange (KRAS G12D) was “†”.

With Cc1nc2c(F)c(-c3cccc(Cl)c3Cl)c(CCC#N)cc2c2c1cc([C@@H](C)N1CCCN(c3cccnc3)C1=O)n2[C@H]1[C@H]2CN[C@@H]1C2 [Example 23, 3-(1-((1R,4R,5S)-2-azabicyclo[2.1.1]hexan-5-yl)-7-(2,3-dichlorophenyl)-6-fluoro-4-methyl-2-((R)-1-(2-oxo-3-(pyridin-3-yl)tetrahydropyrimidin-1(2H)-yl)ethyl)-1H-pyrrolo[3,2-c]quinolin-8-yl)propanenitrile] the G12V_exchange (KRAS G12V) was “†” and the G12D_exchange (KRAS G12D) was “†”.

For Cc1nc2c(F)c(-c3cccc(Cl)c3Cl)c(CCC#N)cc2c2c1cc([C@@H](C)N1CCCN(c3cccc(C4(O)COC4)c3)C1=O)n2[C@H]1[C@H]2CN[C@@H]1C2 [Example 24, 3-(1-((1R,4R,5S)-2-azabicyclo[2.1.1]hexan-5-yl)-7-(2,3-dichlorophenyl)-6-fluoro-2-((R)-1-(3-(3-(3-hydroxyoxetan-3-yl)phenyl)-2-oxotetrahydropyrimidin-1(2H)-yl)ethyl)-4-methyl-1H-pyrrolo[3,2-c]quinolin-8-yl)propanenitrile], the G12V_exchange (KRAS G12V) was “†” and the G12D_exchange (KRAS G12D) was “†”.

For Cc1nc2c(F)c(-c3cccc(Cl)c3Cl)c(CCC#N)cc2c2c1cc([C@@H](C)N1CCCN(c3ccc(C#N)cc3)C1=O)n2[C@H]1[C@H]2CN[C@@H]1C2 [Example 25, 4-(3-((1R)-1-(1-((1R,4R,5S)-2-azabicyclo[2.1.1]hexan-5-yl)-8-(2-cyanoethyl)-7-(2,3-dichlorophenyl)-6-fluoro-4-methyl-1H-pyrrolo[3,2-c]quinolin-2-yl)ethyl)-2-oxotetrahydropyrimidin-1(2H)-yl)benzonitrile], the IC50 (KRAS G12V) was 100 to 1000 nM and the G12D_exchange (KRAS G12D) was “†”.

Cc1cc(N2CCCN([C@H](C)c3cc4c(C)nc5c(F)c(-c6cccc(Cl)c6Cl)c(CCC#N)cc5c4n3[C@H]3[C@H]4CN[C@@H]3C4)C2=O)ccn1 [Example 26, 3-(1-((1R,4R,5S)-2-azabicyclo[2.1.1]hexan-5-yl)-7-(2,3-dichlorophenyl)-6-fluoro-4-methyl-2-((R)-1-(3-(2-methylpyridin-4-yl)-2-oxotetrahydropyrimidin-1(2H)-yl)ethyl)-1H-pyrrolo[3,2-c]quinolin-8-yl)propanenitrile] was tested, and the IC50 (KRAS G12V) was 100 to 1000 nM and the G12D_exchange (KRAS G12D) was “†”.

With Cc1nc2c(F)c(-c3cccc(Cl)c3Cl)c(CCC#N)cc2c2c1cc([C@@H](C)N1CCCN(c3ccnnc3)C1=O)n2[C@H]1[C@H]2CN[C@@H]1C2 [Example 35, 3-(1-((1R,4R,5S)-2-azabicyclo[2.1.1]hexan-5-yl)-7-(2,3-dichlorophenyl)-6-fluoro-4-methyl-2-((R)-1-(2-oxo-3-(pyridazin-4-yl)tetrahydropyrimidin-1(2H)-yl)ethyl)-1H-pyrrolo[3,2-c]quinolin-8-yl)propanenitrile] the G12D_exchange (KRAS G12D) was “†”.
